Laboratory results as given in patent US6656946B2, “Aminoquinazolines which inhibit signal transduction mediated by tyrosine kinases” (Boehringer Ingelheim Pharma KG, priority 2000, dated 2003).

Assays:
human EGF-R = target: T1, human EGF-R (Homo sapiens, UniProt P00533); experiment: Inhibition of EGF-dependent proliferation of F/L-HERc cells; assay type: cell-based; conditions: F/L-HERc cells (murine IL-3-dependent line expressing human EGF-R), stimulated with EGF 20 ng/ml, 48 hours, Cell Titer 96 AQueous assay
T1 construct: expressed in transfected cells; host or cells: F/L-HERc (murine IL-3-dependent FDC-P1 cells transduced with retroviral vector LXSN carrying the human EGF-R cDNA; packaging line GP+E86)
From the text: A cell line of murine origin dependent on interleukin-3-(IL-3) which was genetically modified to express functional human EGF-R was used here. The proliferation of these cells known as F/L-HERc can therefore be stimulated either by murine IL-3 or by EGF (cf. von Rüden, T. et al. in EMBO J. 7, 2749-2756 (1988) and Pierce, J. H. et al. in Science 239, 628-631 (1988)).
The starting material used for the F/L-HERc cells was the cell line FDC-P1, the production of which has been described by Dexter, T. M. et al. in J. Exp. Med. 152, 1036-1047 (1980). Alternatively, however, other growth-factor-dependent cells may also be used (cf. for example Pierce, J. H. et al. in Science 239, 628-631 (1988), Shibuya, H. et al. in Cell 70, 57-67 (1992) and Alexander, W. S. et al. in EMBO J. 10, 3683-3691 (1991)). For expressing the human EGF-R cDNA (cf. Ullrich, A. et al. in Nature 309, 418-425 (1984)) recombinant retroviruses were used as described by von Rüden, T. et al., EMBO J. 7, 2749-2756 (1988), except that the retroviral vector LXSN (cf. Miller, A. D. et al. in BioTechniques 7, 980-990 (1989)) was used for the expression of the EGF-R cDNA and the line GP+E86 (cf. Markowitz, D. et al. in J. Virol. 62, 1120-1124 (1988)) was used as the packaging cell.
The test was performed as follows:
F/L-HERc cells were cultivated in RPMI/1640 medium (BioWhittaker), supplemented with 10% foetal calf serum (FCS, Boehringer Mannheim), 2 mM glutamine (BioWhittaker), standard antibiotics and 20 ng/ml of human EGF (Promega), at 37° C. and 5% CO2. In order to investigate the inhibitory activity of the compounds according to the invention, 1.5×10^4 cells per well were cultivated in triplicate in 96-well dishes in the above medium (200 μl), the cell proliferation being stimulated with either EGF (20 ng/ml) or murine IL-3. The IL-3 used was obtained from culture supernatants of the cell line X63/0 mIL-3 (cf. Karasuyama, H. et al. in Eur. J. Immunol. 18, 97-104 (1988)). The compounds according to the invention were dissolved in 100% dimethylsulphoxide (DMSO) and added to the cultures in various dilutions, the maximum DMSO concentration being 1%. The cultures were incubated for 48 hours at 37° C.
In order to determine the inhibitory activity of the compounds according to the invention the relative cell number was measured in O.D. units using the Cell Titer 96™ AQueous Non-Radioactive Cell Proliferation Assay (Promega). The relative cell number was calculated as a percentage of the control (F/LHERc cells without inhibitor) and the concentration of active substance which inhibits the proliferation of the cells by 50% (IC50) was derived therefrom.

T1 sequence (P00533 25-1210): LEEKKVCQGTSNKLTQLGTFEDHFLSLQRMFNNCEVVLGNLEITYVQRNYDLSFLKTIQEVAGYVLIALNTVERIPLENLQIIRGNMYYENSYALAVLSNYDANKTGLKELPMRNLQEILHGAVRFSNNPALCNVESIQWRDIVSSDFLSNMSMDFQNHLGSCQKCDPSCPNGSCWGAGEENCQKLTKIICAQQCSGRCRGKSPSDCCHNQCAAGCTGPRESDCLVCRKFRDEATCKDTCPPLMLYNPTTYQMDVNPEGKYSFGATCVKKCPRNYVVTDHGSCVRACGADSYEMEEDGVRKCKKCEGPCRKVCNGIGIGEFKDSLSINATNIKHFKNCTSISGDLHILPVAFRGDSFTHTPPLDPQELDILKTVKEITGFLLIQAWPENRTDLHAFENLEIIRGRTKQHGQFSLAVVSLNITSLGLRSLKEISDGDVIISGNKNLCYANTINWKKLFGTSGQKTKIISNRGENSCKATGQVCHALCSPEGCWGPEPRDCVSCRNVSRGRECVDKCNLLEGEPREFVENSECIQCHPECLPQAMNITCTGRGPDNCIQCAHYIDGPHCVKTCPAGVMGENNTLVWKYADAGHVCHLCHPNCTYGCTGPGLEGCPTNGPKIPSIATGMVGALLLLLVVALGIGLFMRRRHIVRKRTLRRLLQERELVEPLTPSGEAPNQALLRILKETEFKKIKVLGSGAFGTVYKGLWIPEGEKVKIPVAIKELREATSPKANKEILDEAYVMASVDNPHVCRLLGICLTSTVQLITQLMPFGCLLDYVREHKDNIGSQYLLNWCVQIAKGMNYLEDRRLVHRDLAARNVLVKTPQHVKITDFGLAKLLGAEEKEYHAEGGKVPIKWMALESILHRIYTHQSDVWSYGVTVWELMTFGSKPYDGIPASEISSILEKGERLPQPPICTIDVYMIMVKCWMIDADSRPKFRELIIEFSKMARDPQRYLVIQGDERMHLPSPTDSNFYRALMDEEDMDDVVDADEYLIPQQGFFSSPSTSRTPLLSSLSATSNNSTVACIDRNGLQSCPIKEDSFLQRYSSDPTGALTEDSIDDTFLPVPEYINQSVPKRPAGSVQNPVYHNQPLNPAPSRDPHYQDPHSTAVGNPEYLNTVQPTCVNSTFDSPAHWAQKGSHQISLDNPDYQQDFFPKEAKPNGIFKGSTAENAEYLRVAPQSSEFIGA

| Compound | IC50 (human EGF-R) | melting point |
| --- | --- | --- |
| CC1(C)CN(CCOc2cc3ncnc(Nc4ccc(F)c(Cl)c4)c3cc2OCC2CCCC2)CC(=O)O1 [Example 1, 4-[(3-Chloro-4-fluorophenyl)amino]-6-cyclopentylmethoxy-7-[2-(6,6-dimethyl-2-oxo-morpholin-4-yl)-ethoxy]-quinazoline] | 59 nM |  |
| C[C@@H]1CN(CCCOc2cc3c(Nc4ccc(F)c(Cl)c4)ncnc3cc2OC2CCC2)CC(=O)O1 [Example 3(6), 4-[(3-Chloro-4-fluorophenyl)amino]-6-[3-((R)-6-methyl-2-oxo-morpholin-4-yl)-propyloxy]-7-cyclobutyloxy-quinazoline] |  | 185.5 to 189.5 °C |
| CN(CCCOc1cc2c(Nc3ccc(F)c(Cl)c3)ncnc2cc1OC1CCC1)C1COC(=O)C1 (centres unmarked) [Example 2(2), 4-[(3-Chloro-4-fluorophenyl)amino]-6-{3-[N-(2-oxo-tetrahydrofuran-4-yl)-N-methyl-amino]-propyloxy}-7-cyclobutyloxy-quinazoline] |  | 147.5 to 151 °C |
| COc1cc2ncnc(Nc3cccc(Br)c3)c2cc1OCCN1CC(=O)O[C@H](C)C1 [Example 3(1), 4-[(3-Bromo-phenyl)amino]-6-[2-((R)-6-methyl-2-oxo-morpholin-4-yl)-ethoxy]-7-methoxy-quinazoline] |  | 193 °C |
| COc1cc2ncnc(Nc3ccc(F)c(Cl)c3)c2cc1OCCN1CC(=O)OC(C)(C)C1 [Example 3(27), 4-[(3-Chloro-4-fluorophenyl)amino]-6-[2-(6,6-dimethyl-2-oxo-morpholin-4-yl)-ethoxy]-7-methoxy-quinazoline] |  | 229 to 232 °C |
| CC1(C)CN(CCCOc2cc3c(Nc4ccc(F)c(Cl)c4)ncnc3cc2OC2CCC2)CC(=O)O1 [1(2), 4-[(3-Chloro-4-fluorophenyl)amino]-7-cyclobutyloxy-6-[3-(6,6-dimethyl-2-oxo-morpholin-4-yl)-propyloxy]-quinazoline] | 29 nM | 212 to 214 °C |
| COc1cc2ncnc(Nc3ccc(F)c(Cl)c3)c2cc1OCCN1CC(=O)O[C@H](C)C1 [Example 3(2), 4-[(3-Chloro-4-fluorophenyl)amino]-6-[2-((R)-6-methyl-2-oxo-morpholin-4-yl)-ethoxy]-7-methoxy-quinazoline] |  | 208 °C |
| COc1cc2ncnc(Nc3cccc(Br)c3)c2cc1OCCN(CC(=O)OC(C)(C)C)C[C@@H](C)O [Example 4(1), 4-[(3-Bromo-phenyl)amino]-6-(2-{N-[(tert.butyloxycarbonyl)methyl]-N-((R)-2-hydroxy-propyl)-amino}-ethoxy)-7-methoxy-quinazoline] |  | 130 °C |
| CC1(C)CN(CCOc2cc3c(Nc4ccc(F)c(Cl)c4)ncnc3cc2OC[C@H]2CCCO2)CC(=O)O1 [Example 3(29), 4-[(3-chloro-4-fluorophenyl)amino]-6-[2-(6,6-dimethyl-2-oxo-morpholin-4-yl)-ethoxy]-7-[(R)-(tetrahydrofuran-2-yl)methoxy]-quinazoline] |  | 184 °C |
| CN(CCOc1cc2ncnc(Nc3ccc(F)c(Cl)c3)c2cc1OC1CCCC1)C1COC(=O)C1 (centres unmarked) [2(1), 4-[(3-Chloro-4-fluorophenyl)amino]-6-cyclopentyloxy-7-{2-[N-(2-oxo-tetrahydrofuran-4-yl)-N-methyl-amino]-ethoxy}-quinazoline] | 36 nM |  |
| CC1(C)CN(CCOc2cc3c(Nc4ccc(F)c(Cl)c4)ncnc3cc2O[C@@H]2CCOC2)CC(=O)O1 [Example 3(28), 4-[(3-chloro-4-fluorophenyl)amino]-6-[2-(6,6-dimethyl-2-oxo-morpholin-4-yl)-ethoxy]-7-((R)-tetrahydrofuran-3-yloxy)-quinazoline] |  | 195 to 196 °C |
| C[C@H]1CN(CCCOc2cc3c(Nc4ccc(F)c(Cl)c4)ncnc3cc2OCC2CC2)CC(=O)O1 [Example 3(9), 4-[(3-Chloro-4-fluorophenyl)amino]-6-[3-((S)-6-methyl-2-oxo-morpholin-4-yl)-propyloxy]-7-cyclopropylmethoxy-quinazoline] |  | 160 to 162 °C |
| COc1cc2ncnc(Nc3ccc(F)c(Cl)c3)c2cc1OCCCN1CC(=O)O[C@@H](C)C1 [Example 3(23), 4-[(3-Chloro-4-fluorophenyl)amino]-6-[3-((S)-6-methyl-2-oxo-morpholin-4-yl)-propyloxy]-7-methoxy-quinazoline] |  | 183 to 186 °C |
| COc1cc2ncnc(Nc3ccc(F)c(Cl)c3)c2cc1OCCN(CC(=O)O)C[C@H](C)O [Example 3(26), 4-[(3-Chloro-4-fluorophenyl)amino]-6-{2-[N-(carboxymethyl)-N-((S)-2-hydroxy-propyl)-amino]-ethoxy}-7-methoxy-quinazoline] |  | 187 to 190 °C |
| CC1(C)CN(CCOc2cc3ncnc(Nc4ccc(F)c(Cl)c4)c3cc2O[C@H]2CCOC2)CC(=O)O1 [Example 3(30), 4-[(3-chloro-4-fluorophenyl)amino]-7-[2-(6,6-dimethyl-2-oxo-morpholin-4-yl)-ethoxy]-6-((S)-tetrahydrofuran-3-yloxy)-quinazoline] |  | 202 to 205 °C |
| CC1(C)CN(CCOc2cc3ncnc(Nc4ccc(F)c(Cl)c4)c3cc2OCC2CC2)CC(=O)O1 [1(1), 4-[(3-Chloro-4-fluorophenyl)amino]-6-cyclopropylmethoxy-7-[2-(6,6-dimethyl-2-oxo-morpholin-4-yl)-ethoxy]-quinazoline] | 29 nM |  |
| C[C@@H]1CN(CCCOc2cc3c(Nc4ccc(F)c(Cl)c4)ncnc3cc2OCC2CC2)CC(=O)O1 [Example 3(8), 4-[(3-Chloro-4-fluorophenyl)amino]-6-[3-((R)-6-methyl-2-oxo-morpholin-4-yl)-propyloxy]-7-cyclopropylmethoxy-quinazoline] |  | 160.5 to 163 °C |
| COc1cc2ncnc(Nc3cccc(Br)c3)c2cc1OCCN1CC(=O)O[C@@H](C)C1 [Example 3, 4-[(3-Bromo-phenyl)amino]-6-[2-((S)-6-methyl-2-oxo-morpholin-4-yl)-ethoxy]-7-methoxy-quinazoline] |  | 190 °C |
| CC1(C)CN(CCOc2cc3ncnc(Nc4ccc(F)c(Cl)c4)c3cc2OC[C@@H]2CCCO2)CC(=O)O1 [Example 3(31), 4-[(3-chloro-4-fluorophenyl)amino]-7-[2-(6,6-dimethyl-2-oxo-morpholin-4-yl)-ethoxy]-6-[(S)-(tetrahydrofuran-2-yl)methoxy]-quinazoline] |  | 182 °C |
| CC1(C)COC(=O)CN1CCCOc1cc2c(Nc3ccc(F)c(Cl)c3)ncnc2cc1OC1CCC1 [Example 3(7), 4-[(3-Chloro-4-fluorophenyl)amino]-6-[3-(5,5-dimethyl-2-oxo-morpholin-4-yl)-propyloxy]-7-cyclobutyloxy-quinazoline] |  | 214 to 216 °C |
| C[C@@H]1CN(CCOc2cc3c(Nc4ccc(F)c(Cl)c4)ncnc3cc2OC2CCCC2)CC(=O)O1 [Example 3(11), 4-[(3-Chloro-4-fluorophenyl)amino]-6-[2-((R)-6-methyl-2-oxo-morpholin-4-yl)-ethoxy]-7-cyclopentyloxy-quinazoline] |  | 176 to 178 °C |
| COc1cc2ncnc(Nc3ccc(F)c(Cl)c3)c2cc1OCCN1CC(=O)O[C@@H](C)C1 [3(25), 4-[(3-Chloro-4-fluorophenyl)amino]-6-[2-((S)-6-methyl-2-oxo-morpholin-4-yl)-ethoxy]-7-methoxy-quinazoline] |  | 212 to 213 °C |
